US20110207627A1, “EX VIVO THERAPEUTICS SCREENING OF LIVING BONE MARROW CELLS FOR MULTIPLE MYELOMA” (GEORGE MASON UNIVERSITY, priority 2008, published 2011)

Test system: CD138+ cells and bone marrow cells (BMC)
Assay: Ex vivo treatment of multiple myeloma bone marrow aspirates, reverse phase protein microarray, CD138+ cells compared with bone marrow cells
Assay type: cell-based, human
Settings: female, treatment naive multiple myeloma patient; 4 hours ex vivo; IL-6 stimulated cells compared to IGF1R & Rapamycin combination (FIG. 3)
Excerpt: A workflow using protein kinase signal pathway mapping technology was developed for the ex vivo, short-term drug treatment of fresh, living human multiple myeloma (MM) bone marrow aspirate tumor cells, compared to non MM bone marrow cells for the same patient. The study sought a) to measure the signal pathway perturbations caused by the inhibitor/ligand treatment in individual baseline bone marrow aspirate samples, b) to correlate this with the susceptibility of the ex vivo living sample to apoptosis induction, within 4 hours, by a molecular targeted inhibitor which blocks this pathway, and c) to compare the relative sensitivity of tumor and non tumor bone marrow cells treated in admixture under identical conditions to identify predictive/prognostic protein-based biomarkers.
Human bone marrow aspirates (n=20) and clinical information were collected following an IRB approved protocol from patients providing informed consent. A portion of the aspirate that was not needed for pathological diagnosis was immediately fixed for baseline analysis and the remaining sample was separated into multiple aliquots for ex vivo treatment. […]
Reverse phase protein arrays were used to quantitatively map 60 to 75 signal pathway endpoints. The impact of each treatment was measured on the selected endpoint compared to the vehicle control. […]

## IL-6: cytokine used as exogenous ligand to stimulate cells
  pro survival signaling: Differential pro survival signaling
